The source of these data is patent US9994546B2, “Cyclopropylamines as LSD1 inhibitors” (Incyte Corporation, priority 2014, dated 2018).

In the assay the target is LSD-1 enzyme (Homo sapiens (Human), UniProt O60341). The assay can be described thus: LANCE LSD1/KDM1A demethylase assay (LSD1 histone demethylase biochemical assay). As to conditions: 1 nM LSD-1 enzyme, 1 hour preincubation at 25° C., 0.4 μM biotin-labeled Histone H3 peptide substrate. The procedure: LANCE LSD1/KDM1A demethylase assay—10 μL of 1 nM LSD-1 enzyme (ENZO BML-SE544-0050) in the assay buffer (50 mM Tris, pH 7.5, 0.01% Tween-20, 25 mM NaCl, 5 mM DTT) were preincubated for 1 hour at 25° C. with 0.8 μL compound/DMSO dotted in black 384 well polystyrene plates. […] After stopping the reactions plates were incubated for 30 minutes and read on a PHERAstar FS plate reader (BMG Labtech).
For the compound `N#CCC1(N2CCC(N[C@@H]3C[C@H]3c3ccccc3)CC2)CN(C(=O)C2(O)CCCC2)C1` [Example 85, [1-[(1-hydroxycyclopentyl)carbonyl]-3-(4-{[(1R,2S)-2-phenylcyclopropyl]amino}piperidin-1-yl)azetidin-3-yl]acetonitrile], the IC50 was not above 100 nM. Turning to `N#CCC1(N2CCC(N[C@@H]3C[C@H]3c3ccccc3)CC2)CN(C(=O)N2CCOCC2)C1` [Example 86, [1-(morpholin-4-ylcarbonyl)-3-(4-{[(1R,2S)-2-phenylcyclopropyl]amino}piperidin-1-yl)azetidin-3-yl]acetonitrile], the IC50 was not above 100 nM. `N#CCC1(N2CCC(N[C@@H]3C[C@H]3c3ccccc3)CC2)CN(C(=O)N2CCC(O)CC2)C1` [Example 87, [1-[(4-hydroxypiperidin-1-yl)carbonyl]-3-(4-{[(1R,2S)-2-phenylcyclopropyl]amino}piperidin-1-yl)azetidin-3-yl]acetonitrile] showed an IC50 not above 100 nM.

In the case of `COC1CCN(C(=O)N2CC(CC#N)(N3CCC(N[C@@H]4C[C@H]4c4ccccc4)CC3)C2)CC1` [Example 88, [1-[(4-methoxypiperidin-1-yl)carbonyl]-3-(4-{[(1R,2S)-2-phenylcyclopropyl]amino}piperidin-1-yl)azetidin-3-yl]acetonitrile], the IC50 is not above 100 nM. As to `N#CCC1(N2CCC(N[C@@H]3C[C@H]3c3ccccc3)CC2)CN(C(=O)N2CC(O)C2)C1` [Example 89, [1-[(3-hydroxyazetidin-1-yl)carbonyl]-3-(4-{[(1R,2S)-2-phenylcyclopropyl]amino}piperidin-1-yl)azetidin-3-yl]acetonitrile], the IC50 is not above 100 nM. In the case of `CN(C)C(=O)CC1(N2CCC(N[C@@H]3C[C@H]3c3ccccc3)CC2)CN(S(C)(=O)=O)C1` [Example 90, N,N-dimethyl-2-(1-(methylsulfonyl)-3-(4-(((1R,2S)-2-phenylcyclopropyl)amino)piperidin-1-yl)azetidin-3-yl)acetamide], the IC50 is not above 100 nM. `CNC(=O)CC1(N2CCC(N[C@@H]3C[C@H]3c3ccccc3)CC2)CN(S(C)(=O)=O)C1` [Example 91, N-methyl-2-[1-(methylsulfonyl)-3-(4-{[(1R,2S)-2-phenylcyclopropyl]amino}piperidin-1-yl)azetidin-3-yl]acetamide] yielded an IC50 not above 100 nM. As to `CCS(=O)(=O)N1CC(CCO)(N2CCC(N[C@@H]3C[C@H]3c3ccccc3)CC2)C1` [Example 92, 2-[1-(ethylsulfonyl)-3-(4-{[(1R,2S)-2-phenylcyclopropyl]amino}piperidin-1-yl)azetidin-3-yl]ethanol], the IC50 is not above 100 nM. For `CS(=O)(=O)N1CC(CCO)(N2CCC(N[C@@H]3C[C@H]3c3ccccc3)CC2)C1` [Example 93, 2-[1-(methylsulfonyl)-3-(4-{[(1R,2S)-2-phenylcyclopropyl]amino}piperidin-1-yl)azetidin-3-yl]ethanol] the value was not above 100 nM; for `COC(=O)N1CC(CC(=O)N(C)C)(N2CCC(N[C@@H]3C[C@H]3c3ccccc3)CC2)C1` [Example 94, methyl 3-[2-(dimethylamino)-2-oxoethyl]-3-(4-{[(1R,2S)-2-phenylcyclopropyl]amino}piperidin-1-yl)azetidine-1-carboxylate], not above 100 nM; for `CNC(=O)CC1(N2CCC(N[C@@H]3C[C@H]3c3ccccc3)CC2)CN(C(=O)OC)C1` [Example 95, methyl 3-[2-(methylamino)-2-oxoethyl]-3-(4-{[(1R,2S)-2-phenylcyclopropyl]amino}piperidin-1-yl)azetidine-1-carboxylate], not above 100 nM. In turn, `CN(C)C(=O)CC1(N2CCC(N[C@@H]3C[C@H]3c3ccccc3)CC2)CN(C(=O)N(C)C)C1` [Example 96, 3-[2-(dimethylamino)-2-oxoethyl]-N,N-dimethyl-3-(4-{[(1R,2S)-2-phenylcyclopropyl]amino}piperidin-1-yl)azetidine-1-carboxamide] registered an IC50 not above 100 nM.

As for `CNC(=O)CC1(N2CCC(N[C@@H]3C[C@H]3c3ccccc3)CC2)CN(C(=O)N(C)C)C1` [Example 97, N,N-dimethyl-3-[2-(methylamino)-2-oxoethyl]-3-(4-{[(1R,2S)-2-phenylcyclopropyl]amino}piperidin-1-yl)azetidine-1-carboxamide], the IC50 is not above 100 nM. `Cn1cc(N2CC(CC#N)(N3CCC(N[C@@H]4C[C@H]4c4ccccc4)CC3)C2)cn1` [Example 98, [1-(1-methyl-1H-pyrazol-4-yl)-3-(4-{[(1R,2S)-2-phenylcyclopropyl]amino}piperidin-1-yl)azetidin-3-yl]acetonitrile] displayed an IC50 not above 100 nM. On to `N#CCC1(N2CCC(N[C@@H]3C[C@H]3c3ccccc3)CC2)CN(C(=O)OC2CCOC2)C1` (stereo partly drawn) [Example 99, tetrahydrofuran-3-yl 3-(cyanomethyl)-3-(4-{[(1R,2S)-2-phenylcyclopropyl]amino}piperidin-1-yl)azetidine-1-carboxylate], for which the IC50 is not above 100 nM. `Cn1cc(S(=O)(=O)N2CC(CC#N)(N3CCC(N[C@@H]4C[C@H]4c4ccccc4)CC3)C2)cn1` [Example 100, [1-[(1-methyl-1H-pyrazol-4-yl)sulfonyl]-3-(4-{[(1R,2S)-2-phenylcyclopropyl]amino}piperidin-1-yl)azetidin-3-yl]acetonitrile] had an IC50 not above 100 nM. For `CS(=O)(=O)N1CC(CC#N)(N2CCC(N[C@@H]3C[C@H]3c3ccc(F)cc3)CC2)C1` [Example 101, [3-(4-{[(1R,2S)-2-(4-fluorophenyl)cyclopropyl]amino}piperidin-1-yl)-1-(methylsulfonyl)azetidin-3-yl]acetonitrile] the value was not above 100 nM; for `N#CCC1(N2CCC(N[C@@H]3C[C@H]3c3ccc(F)cc3)CC2)CN(S(N)(=O)=O)C1` [Example 102, 3-(cyanomethyl)-3-(4-{[(1R,2S)-2-(4-fluorophenyl)cyclopropyl]amino}piperidin-1-yl)azetidine-1-sulfonamide], not above 100 nM. `O=C(O)CC1(N2CCC(CN[C@@H]3C[C@H]3c3ccccc3)CC2)CCC1` [Example 105, {1-[4-({[(1R,2S)-2-phenylcyclopropyl]amino}methyl)piperidin-1-yl]cyclobutyl}acetic acid] yielded an IC50 not above 100 nM. `N#CCC1(N2CCC(N[C@@H]3C[C@H]3c3ccccc3)CC2)CN(C2CC(O)C2)C1` (stereo partly drawn) [Example 106, [1-(3-hydroxycyclobutyl)-3-(4-{[(1R,2S)-2-phenylcyclopropyl]amino}piperidin-1-yl)azetidin-3-yl]acetonitrile] showed a half-maximal inhibitory concentration (IC50) not above 100 nM. `N#CCC1(N2CCC(N[C@@H]3C[C@H]3c3ccccc3)CC2)CN(C(=O)C2CCCO2)C1` (stereo partly drawn) [Example 107, 2-(3-(4-(((1R,2S)-2-phenylcyclopropyl)amino)piperidin-1-yl)-1-(tetrahydrofuran-2-carbonyl)azetidin-3-yl)acetonitrile]: the IC50 was not above 100 nM. Consider `N#CCC1(N2CCC(N[C@@H]3C[C@H]3c3ccccc3)CC2)CN(C(=O)C2CCOC2)C1` (stereo partly drawn) [Example 108, [3-(4-{[(1R,2S)-2-phenylcyclopropyl]amino}piperidin-1-yl)-1-(tetrahydrofuran-3-ylcarbonyl)azetidin-3-yl]acetonitrile], for which the IC50 was not above 100 nM.

`N#CCC1(N2CCC(N[C@@H]3C[C@H]3c3ccccc3)CC2)CN(C(=O)c2cncs2)C1` [Example 109, [3-(4-{[(1R,2S)-2-phenylcyclopropyl]amino}piperidin-1-yl)-1-(1,3-thiazol-5-ylcarbonyl)azetidin-3-yl]acetonitrile]: the IC50 was not above 100 nM.
